Experimental data from patent US20070054927A1, “Fungicidal mixtures” (BASF AKTIENGESELLSCHAFT, priority 2003, published 2007).

Test system: Plasmopara viticola
Experiment: activity against peronospora of grapevines caused by Plasmopara viticola, protective application
Type: in vivo
Conditions: individual active compound, potted vines Müller-Thurgau, untreated control 71% infection
Protocol: The active compounds, separately or jointly, were prepared as a stock solution comprising 0.25% by weight of active compound in acetone or DMSO. 1% by weight of the emulsifier Uniperol® EL (wetting agent having emulsifying and dispersant action based on ethoxylated alkylphenols) was added to this solution, and the mixture was diluted with water to the desired concentration.
Use example—activity against peronospora of gravevines caused by Plasmopara viticola, protective application
Leaves of potted vines of the cultivar “Müller-Thurgau” were sprayed to runoff point with an aqueous suspension having the concentration of active compound stated below. The next day, the undersides of the leaves were inoculated with an aqueous zoospore suspension of Plasmopara viticola. The grapevines were then initially placed in a water-vapor-saturated chamber at 24° C. for 48 hours and then in a greenhouse at 20-30° C. for 5 days. After this period of time, the plants were again placed in a humid chamber for 16 hours to promote sporangiophore eruption. The extent of the development of the disease on the undersides of the leaves was then determined visually.
The visually determined percentages of infected leaf areas were converted into efficacies in % of the untreated control:
The efficacy (E) is calculated as follows using Abbot's formula: E=(1−α/β)·100 • α corresponds to the fungicidal infection of the treated plants in % and • β corresponds to the fungicidal infection of the untreated (control) plants in %
An efficacy of 0 means that the infection level of the treated plants corresponds to that of the untreated control plants; an efficacy of 100 means that the treated plants were not infected.
The expected efficacies of mixtures of active compounds were determined using Colby's formula (Colby, S. R. “Calculating synergistic and antagonistic responses of herbicide combinations”, Weeds, 15, 20-22, 1967) and compared with the observed efficacies.
Colby's formula: E=x+y−x·y/100 • E expected efficacy, expressed in % of the untreated control, when using the mixture of the active compounds A and B at the concentrations a and b • x efficacy, expressed in % of the untreated control, when using the active compound A at the concentration a • y efficacy, expressed in % of the untreated control, when using the active compound B at the concentration b

| SMILES | Efficacy in % of the untreated control (4 ppm in the spray liquor) [%] | Efficacy in % of the untreated control (16 ppm in the spray liquor) [%] |
| --- | --- | --- |
| CC1(C)CCC(Cc2ccc(Cl)cc2)C1(O)Cn1cncn1 (centres unmarked) [II (metconazole), 5-(4-chlorobenzyl)-2,2-dimethyl-1-[1,2,4]triazol-1-ylmethylcyclopentanol] | 1 | 1 |
| CC1CCN(c2c(-c3c(F)cc(F)cc3F)c(Cl)nc3ncnn23)CC1 [I, 5-chloro-7-(4-methylpiperidin-1-yl)-6-(2,4,6-trifluorophenyl)-[1,2,4]triazolo[1,5-a]pyrimidine] | 1 | 44 |
| CC1CCN(c2c(-c3c(F)cccc3Cl)c(Cl)nc3ncnn23)CC1 [comparative compound A] | 0 | 15 |
| C[C@H](Nc1c(-c2c(F)cc(F)cc2F)c(Cl)nc2ncnn12)C(F)(F)F [comparative compound B] | 15 | 29 |
